Measurements reported in US11897865B2, “ABHD12 inhibitors and methods of making and using same” (THE SCRIPPS RESEARCH INSTITUTE, priority 2018, dated 2024).

Key:
[1] = biological target: T1, ABHD12 (Mus musculus, UniProt Q99LR1); assay: Gel-based competitive ABPP, JJH350 probe vs brain membrane proteome; type: biochemical; settings: for inhibition at 10 µM: 10 μM compound, read-out: % Inhibition @ 10 μM (ABPP gel_JJH350 probe vs brain mem); for IC50: read-out: IC50 (ABPP gel_JJH350 probe vs brain mem)
T1 construct: from tissue; host or cells: brain membrane proteome
T1 sequence (Q99LR1 1-398): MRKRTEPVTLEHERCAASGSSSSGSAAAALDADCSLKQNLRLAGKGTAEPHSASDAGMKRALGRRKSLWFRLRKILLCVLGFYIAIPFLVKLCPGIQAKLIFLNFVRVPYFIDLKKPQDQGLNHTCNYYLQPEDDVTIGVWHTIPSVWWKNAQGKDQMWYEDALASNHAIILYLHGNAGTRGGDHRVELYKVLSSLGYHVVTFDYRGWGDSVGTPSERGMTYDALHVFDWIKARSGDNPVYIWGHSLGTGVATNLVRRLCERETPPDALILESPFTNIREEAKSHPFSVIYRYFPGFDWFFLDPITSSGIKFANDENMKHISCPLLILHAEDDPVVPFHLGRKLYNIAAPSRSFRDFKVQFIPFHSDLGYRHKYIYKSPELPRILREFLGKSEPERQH
Method in brief: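 Mouse membrane proteome (1 mg/mL) labeled 45 min at 37 °C with alkyne probe JJH350 (2 μM final) or FP-Rh (1 μM final). JJH350 targets were visualized after CuAAC with rhodamine-azide (1 h, room temperature), SDS-PAGE (10%) and in-gel fluorescence scanning, with band intensities quantified.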

[2] = biological target: T2, ABHD12 (Homo sapiens, UniProt Q8N2K0); assay: Lyso-PS hydrolysis assay (substrate-based), ABHD12-overexpressing HEK293T membrane lysate; type: biochemical; settings: 17:1 lyso-PS substrate; ABHD12-overexpressed HEK lysate; read-out: IC50 (Substrate-based assay_ABHD12-overexpressed HEK lysate)
T2 construct: expressed in transfected cells; host or cells: HEK293T
T2 sequence (Q8N2K0 1-398): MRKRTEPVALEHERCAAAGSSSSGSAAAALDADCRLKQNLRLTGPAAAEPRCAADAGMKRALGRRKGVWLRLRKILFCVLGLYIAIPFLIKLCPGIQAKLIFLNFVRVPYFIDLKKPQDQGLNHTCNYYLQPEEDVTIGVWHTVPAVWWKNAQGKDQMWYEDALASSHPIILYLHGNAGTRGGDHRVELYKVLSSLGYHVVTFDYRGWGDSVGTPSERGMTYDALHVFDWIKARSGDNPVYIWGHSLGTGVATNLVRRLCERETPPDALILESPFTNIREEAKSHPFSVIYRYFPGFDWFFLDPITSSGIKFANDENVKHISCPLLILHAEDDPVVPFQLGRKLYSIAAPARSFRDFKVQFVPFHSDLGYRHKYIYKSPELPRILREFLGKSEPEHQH
Experimental: Lyso-PS Hydrolysis Assay:
The lyso-PS lipase activity of ABHD12 was determined as previously described (Blankman, J. L., Long, J. Z., Trauger, S. A., Siuzdak, G. & Cravatt, B. F. ABHD12 controls brain lysophosphatidylserine pathways that are deregulated in a murine model of the neurodegenerative disease PHARC. Proc. Natl. Acad. Sci. U. S. A. 110, 1500-1505, doi:10.1073/pnas.1217121110 (2013)) with some minor modifications. The proteome concentrations were adjusted to 0.25 mg/mL (ABHD12-overexpressing HEK293T membrane) or 0.5 mg/mL (mouse brain membrane) in Dulbecco's phosphate-buffered saline (DPBS) (80 μL/reaction). 20 μL of 500 μM 17:1 lyso-PS in DPBS was added to each reaction (100 μM final concentration) and incubated at 37° C. After 30 min, the reaction was quenched with 400 μL of 2:1 CHCl3/MeOH (v/v) with 1 nmol 15:0 FFA as an internal standard. The mixture was vortexed and centrifuged at 1,400× g to separate the aqueous and organic phase. The organic phase was analyzed by LC-MS (1200 LC/MSD, Agilent Technologies). The separation of the analyte was achieved using a 50 mm×4.6 mm 5 μm Gemini C18 column (Phenomenex) coupled to a guard column (Gemini: C18: 4×3 mm). The LC solvents were as follows: buffer A, […] (95:5, v/v) with 0.1% NH4OH (v/v); and buffer B, iPrOH:MeOH:H2O (60:3 5:5, v/v/v) with 0.1% NH4OH (v/v). The LC method consisted of 0.1 mL/min 20% buffer B for 1.0 min, 0.4 ml/min isocratic mode of 100% buffer B over 7 min and equilibration with 0.5 mL/min 100% buffer A for 3 min. The MS analyses were performed using an electrospray ionization source (ESI) in negative ion mode to measure product formation. MS data were acquired in selected ion monitoring mode at m/z 267.20 for 17:1 FFA and m/z 241.20 for 15:0 FFA.

Row | SMILES | inhibition at 10 µM [1] | IC50 [1] | IC50 [2]
1 | FC(F)(F)c1cc(N2CCC(NC(=S)Nc3cccnc3)CC2)ncc1Cl [Example 25, 1-(1-(5-Chloro-4-(trifluoromethyl)pyridin-2-yl)piperidin-4-yl)-3-(pyridin-3-yl)thiourea] | ≥ 75% | 1000 to 25000 nM | 1000 to 25000 nM
2 | FC(F)(F)Oc1ccc(Oc2ccnc(N3CCC(NC(=S)Nc4cccnc4)CC3)c2C(F)(F)F)cc1 [Example 59, 1-(Pyridin-3-yl)-3-(1-(4-(4-(trifluoromethoxy)phenoxy)-3-(trifluoromethyl)pyridin-2-yl)piperidin-4-yl)thiourea] | ≥ 75% | 1000 to 25000 nM | 1000 to 25000 nM
3 | FC(F)(F)Oc1ccc(Oc2ccnc(N3CCC(NC(=S)Nc4cccnc4)CC3)c2Cl)c(Cl)c1 [Example 4, 1-(1-(3-Chloro-4-(2-chloro-4-(trifluoromethoxy)phenoxy)pyridin-2-yl)piperidin-4-yl)-3-(pyridin-3-yl)thiourea] |  | ≤ 100 nM | ≤ 100 nM
4 | Fc1ccc(Oc2ccnc(N3CCC(NC(=S)Nc4cccnc4)CC3)c2)cc1 [Example 41, 1-(1-(4-(4-Fluorophenoxy)pyridin-2-yl)piperidin-4-yl)-3-(pyridin-3-yl)thiourea] | ≥ 75% | 1000 to 25000 nM | 1000 to 25000 nM
5 | S=C(Nc1cccnc1)NC1CCN(c2cc(Oc3ccccc3)ccn2)CC1 [Example 40, 1-(1-(4-Phenoxypyridin-2-yl)piperidin-4-yl)-3-(pyridin-3-yl)thiourea] | ≥ 75% | 1000 to 25000 nM | 1000 to 25000 nM
6 | FC(F)(F)c1cc(Cl)nc(N2CCC(NC(=S)Nc3cccnc3)CC2)c1 [Example 27, 1-(1-(6-Chloro-4-(trifluoromethyl)pyridin-2-yl)piperidin-4-yl)-3-(pyridin-3-yl)thiourea] | ≥ 75% | 100 to 1000 nM | 100 to 1000 nM
7 | FC(F)(F)Oc1ccc(Oc2ccnc(N3CCC(NC(=S)Nc4cccnc4)CC3)c2)cc1Cl [Example 54, 1-(1-(4-(3-Chloro-4-(trifluoromethoxy)phenoxy)pyridin-2-yl)piperidin-4-yl)-3-(pyridin-3-yl)thiourea] | ≥ 75% |  | 100 to 1000 nM
8 | N#Cc1c(Oc2ccc(OC(F)(F)F)cc2)ccnc1N1CCC(NC(=S)Nc2cccnc2)CC1 [Example 71, 1-(1-(3-Cyano-4-(4-(trifluoromethoxy)phenoxy)pyridin-2-yl)piperidin-4-yl)-3-(pyridin-3-yl)thiourea] |  | 100 to 1000 nM | 100 to 1000 nM
9 | FC(F)(F)c1cccc(N2CCC(NC(=S)Nc3cccnc3)CC2)n1 [Example 29, 1-(Pyridin-3-yl)-3-(1-(6-(trifluoromethyl)pyridin-2-yl)piperidin-4-yl)thiourea] | ≥ 75% | 100 to 1000 nM | 100 to 1000 nM
10 | FC(F)(F)c1cnc(N2CCC(NC(=S)Nc3cccnc3)CC2)c(Cl)c1 [Example 1, 1-(1-(3-Chloro-5-(trifluoromethyl)pyridin-2-yl)piperidin-4-yl)-3-(pyridin-3-yl)thiourea] | ≥ 75% | 1000 to 25000 nM | 1000 to 25000 nM
11 | FC(F)(F)c1ccnc(N2CCC(NC(=S)Nc3cccnc3)CC2)c1 [Example 15, 1-(Pyridin-3-yl)-3-(1-(4-(trifluoromethyl)pyridin-2-yl)piperidin-4-yl)thiourea] | ≥ 75% | 100 to 1000 nM | 1000 to 25000 nM
12 | FC(F)(F)c1ccc(N2CCC(NC(=S)Nc3cccnc3)CC2)nc1 [Example 14, 1-(Pyridin-3-yl)-3-(1-(5-(trifluoromethyl)pyridin-2-yl)piperidin-4-yl)thiourea] | ≥ 75% | 1000 to 25000 nM | 1000 to 25000 nM
13 | FC(F)(F)Oc1ccccc1Oc1ccnc(N2CCC(NC(=S)Nc3cccnc3)CC2)c1Cl [Example 67, 1-(1-(3-Chloro-4-(2-(trifluoromethoxy)phenoxy)pyridin-2-yl)piperidin-4-yl)-3-(pyridin-3-yl)thiourea] |  | ≤ 100 nM | 100 to 1000 nM
14 | FC(F)(F)Oc1ccc(Oc2ccnc(N3CCC(NC(=S)Nc4cccnc4)CC3)c2)cc1 [Example 2, 1-(Pyridin-3-yl)-3-(1-(4-(4-(trifluoromethoxy)phenoxy)pyridin-2-yl)piperidin-4-yl)thiourea] | ≥ 75% | 100 to 1000 nM | 100 to 1000 nM
15 | Cc1c(Oc2ccc(OC(F)(F)F)cc2)ccnc1N1CCC(NC(=S)Nc2cccnc2)CC1 [Example 72, 1-(1-(3-Methyl-4-(4-(trifluoromethoxy)phenoxy)pyridin-2-yl)piperidin-4-yl)-3-(pyridin-3-yl)thiourea] |  | ≤ 100 nM | ≤ 100 nM
16 | FC(F)(F)Oc1cc(Oc2ccnc(N3CCC(NC(=S)Nc4cccnc4)CC3)c2)ccc1Cl [Example 57, 1-(1-(4-(4-Chloro-3-(trifluoromethoxy)phenoxy)pyridin-2-yl)piperidin-4-yl)-3-(pyridin-3-yl)thiourea] | ≥ 75% | 100 to 1000 nM | 100 to 1000 nM
17 | FC(F)(F)Oc1ccc(Oc2ccnc(N3CCC(NC(=S)Nc4cccnc4)CC3)c2Cl)cc1Cl [Example 65, 1-(1-(3-Chloro-4-(3-chloro-4-(trifluoromethoxy)phenoxy)pyridin-2-yl)piperidin-4-yl)-3-(pyridin-3-yl)thiourea] |  | ≤ 100 nM | ≤ 100 nM
18 | FC(F)(F)c1cccnc1N1CCC(NC(=S)Nc2cccnc2)CC1 [Example 16, 1-(Pyridin-3-yl)-3-(1-(3-(trifluoromethyl)pyridin-2-yl)piperidin-4-yl)thiourea] | 25 to 50% | 1000 to 25000 nM | 1000 to 25000 nM
19 | FC(F)(F)Oc1cccc(Oc2ccnc(N3CCC(NC(=S)Nc4cccnc4)CC3)c2Cl)c1 [Example 66, 1-(1-(3-Chloro-4-(3-(trifluoromethoxy)phenoxy)pyridin-2-yl)piperidin-4-yl)-3-(pyridin-3-yl)thiourea] |  | ≤ 100 nM | 100 to 1000 nM
20 | S=C(Nc1cccnc1)NC1CCN(c2cc(Cl)ccn2)CC1 [Example 28, 1-(1-(4-Chloropyridin-2-yl)piperidin-4-yl)-3-(pyridin-3-yl)thiourea] | ≥ 75% | 1000 to 25000 nM | 1000 to 25000 nM
